In ChEMBL document CHEMBL5335791, “Antiparasitic activity of ivermectin: Four decades of research into a "wonder drug"” (Eur J Med Chem, 2023):

Legend:
Leishmania infantum = test: Antileishmanial activity against promastigote form of Leishmania infantum infected in BALB/c mouse assessed as reduction in parasite growth at 2.5 mg/kg, po administered once for every two days for 10 days; format: functional, organism-based
[1] = (§1) Cytotoxicity against BALB/c mouse macrophage assessed as cell viability measured after 48 hrs by MTT assay; format: toxicity, cell-based; conditions: BALB/c, mouse macrophages
[2] = Selectivity index, ratio of CC50 for cytotoxicity against BALB/c mouse macrophages to IC50 for antileishmanial activity against promastigote form of Leishmania infantum infected in BALB/c mouse; format: toxicity
Trypanosoma cruzi [3] = test: Antitrypanosomal activity against Trypanosoma cruzi Y strain amastigotes; format: functional, organism-based
Trypanosoma evansi = test: Antitrypanosomal activity against Trypanosoma evansi; format: functional, organism-based
[4] = Acute toxicity in Beagle dog assessed as lethal dose; set-up: species or system Canis lupus familiaris; conditions: in vivo
Macrophage = test: as §1; format: toxicity, cell-based; conditions: macrophage, 48 h
[5] = Toxicity in mouse assessed as lethal dose; conditions: in vivo
Trypanosoma cruzi [6] = test: Antitrypanosomal activity against Trypanosoma cruzi Y strain trypomastigotes; format: functional, organism-based
Trypanosoma cruzi [7] = test: Antitrypanosomal activity against Trypanosoma cruzi Y strain intracellular epimastigotes assessed as viability of intracellular epimastigote measured after 5 days; format: functional, organism-based

Row | Compound | IC50 (Leishmania infantum; Leishmania infantum) [µM] | CC50 at 48 h [1] [µM] | selectivity ratio ([2]; BALB/c, mouse macrophages, read-out: Ratio CC50/IC50) | EC50 (Trypanosoma cruzi [3]) [µM] | IC50 (Trypanosoma evansi) [µM] | LD50 [4] [mg/kg] | IC50 (Leishmania infantum) [µM] | CC50 (Macrophage) [µM] | LD50 [5] [mg/kg] | EC50 (Trypanosoma cruzi [6]) [µM] | EC50 (Trypanosoma cruzi [7]) [µM] | Ratio CC50/IC50 [2]
1 | C[C@@H]1[C@H](O)[C@@H](C)/C=C/C=C/C=C/C=C/C=C/C=C/C=C/[C@H](O[C@@H]2O[C@H](C)[C@@H](O)[C@H](N)[C@@H]2O)C[C@@H]2O[C@](O)(C[C@@H](O)C[C@@H](O)[C@H](O)CC[C@@H](O)C[C@@H](O)CC(=O)O[C@H]1C)C[C@H](O)[C@H]2C(=O)O [AMPHOTERICIN B] | 0.12 | 1.06 | ~9 |  |  |  |  |  |  |  |  | 
2 | IVERMECTIN |  |  |  | 0.3 | 13.8 | 80 | 3.64 | 428 | 0.2 | 12.5 | 5.3 | 117
